Measured values as given in the supplement of paper PMC11451515.

Tests used:
Conditions in all cases: 48 h
NOMO1 [1] = assay: cell viability relative to DMSO control; higher = less cytotoxic
How it was run: (§1)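 Viability values are per-plate percentages of DMSO wells, with background from cell-free wells. Library compounds in DMSO were pin-dosed, in an 11-point threefold series from 47 μM to 0.79 nM, onto NOMO1 or SEM (500 cells/well) or P12-Ichikawa (1000 cells/well) leukemia cells in 1536-well plates (5 μl). Those cells had been adapted for at least four passages in each medium, and CellTiter-Glo One luminescence was read after 48 h at 37°C.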

P12-Ichikawa [2] = assay: as above
How it was run: as §1

SEM cells [3] = assay: as above
How it was run: as §1

NOMO1 [4] = assay: AUC of viability dose-response curve (% viability x log10 dose units); higher = less sensitive
How it was run: (§2)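 Library compounds in DMSO were applied for 48 h at 37°C at 11 threefold doses (47 μM to 0.79 nM) to medium-adapted leukemia cells in 1536-well plates holding 500 or 1000 cells/well. Luminescence from CellTiter-Glo One was normalised plate by plate against DMSO and cell-free wells. Area under the curve came from trapezoidal integration of a log-logistic fit, after scaling curves that rose above full viability and discarding those that failed quality control. The fit had four parameters and used log10 doses.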

P12-Ichikawa [5] = assay: as above
How it was run: as §2

SEM cells [6] = assay: as above
How it was run: as §2

CCN(CC)CCNC(=O)c1c(C)[nH]c(/C=C2\C(=O)Nc3ccc(F)cc32)c1C
cell viability [%]
Conditions	NOMO1 [1]	P12-Ichikawa [2]	SEM cells [3]
HPLM + 10% dialyzed FBS, 0.000781 µM	79.5	106	48
HPLM + 10% dialyzed FBS, 0.00234 µM	103	102	47.3
HPLM + 10% dialyzed FBS, 0.00702 µM	109	106	43.4
HPLM + 10% dialyzed FBS, 0.0211 µM	124	103	53
HPLM + 10% dialyzed FBS, 0.0632 µM	87.1	104	41.8
HPLM + 10% dialyzed FBS, 0.19 µM	23.4	36.8	13
HPLM + 10% dialyzed FBS, 0.569 µM	30.7	21.5	9.03
HPLM + 10% dialyzed FBS, 1.71 µM	23	6.34	6.26
HPLM + 10% dialyzed FBS, 5.12 µM	29.1	9.77	5.73
HPLM + 10% dialyzed FBS, 15.4 µM	6.81	3.45	4.36
HPLM + 10% dialyzed FBS, 46.1 µM	4.98	2.39	4.22
RPMI 5 mM glucose + 10% FBS, 0.000781 µM	106	106	72.7
RPMI 5 mM glucose + 10% FBS, 0.00234 µM	103	105	66.3
RPMI 5 mM glucose + 10% FBS, 0.00702 µM	109	114	58.1
RPMI 5 mM glucose + 10% FBS, 0.0211 µM	113	103	57
RPMI 5 mM glucose + 10% FBS, 0.0632 µM	115	118	34.1
RPMI 5 mM glucose + 10% FBS, 0.19 µM	45.5	58.8	10.6
RPMI 5 mM glucose + 10% FBS, 0.569 µM	16.1	34.1	9.65
RPMI 5 mM glucose + 10% FBS, 1.71 µM	21.9	12.6	6.37
RPMI 5 mM glucose + 10% FBS, 5.12 µM	24.7	14.6	5.9
RPMI 5 mM glucose + 10% FBS, 15.4 µM	11.5	4.54	3.85
RPMI 5 mM glucose + 10% FBS, 46.1 µM	3.98	2.44	4.31
RPMI 5 mM glucose + 10% dialyzed FBS, 0.000781 µM	97.7	114	52.8
RPMI 5 mM glucose + 10% dialyzed FBS, 0.00234 µM	110	113	42.7
RPMI 5 mM glucose + 10% dialyzed FBS, 0.00702 µM	100	109	42.2
RPMI 5 mM glucose + 10% dialyzed FBS, 0.0211 µM	117	112	44.5
RPMI 5 mM glucose + 10% dialyzed FBS, 0.0632 µM	117	113	27.6
RPMI 5 mM glucose + 10% dialyzed FBS, 0.19 µM	43.1	51.3	9.68
RPMI 5 mM glucose + 10% dialyzed FBS, 0.569 µM	22.3	31	9.05
RPMI 5 mM glucose + 10% dialyzed FBS, 1.71 µM	25.9	12.2	6.13
RPMI 5 mM glucose + 10% dialyzed FBS, 5.12 µM	31.8	14.3	5.9
RPMI 5 mM glucose + 10% dialyzed FBS, 15.4 µM	11.3	4.09	3.85
RPMI 5 mM glucose + 10% dialyzed FBS, 46.1 µM	3.82	2.75	3.99

AUC of viability dose-response curve
Conditions	HPLM + 10% dialyzed FBS	RPMI 5 mM glucose + 10% FBS	RPMI 5 mM glucose + 10% dialyzed FBS
NOMO1 [4]	257	265	271
P12-Ichikawa [5]	248	266	257

C[C@@H]1[C@H]\2[C@H](O)[C@H]3[C@H](N(C)C)\C(=C(C(N)=O)/C(=O)[C@@]3(O)\C(=C2C(=O)C4=C(O)C=CC=C14)O)O
cell viability [%]
Conditions	HPLM + 10% dialyzed FBS	RPMI 5 mM glucose + 10% FBS	RPMI 5 mM glucose + 10% dialyzed FBS
P12-Ichikawa [2], 0.000781 µM	114	–	–
P12-Ichikawa [2], 0.00234 µM	122	–	–
P12-Ichikawa [2], 0.00702 µM	125	–	–
P12-Ichikawa [2], 0.0211 µM	127	–	–
P12-Ichikawa [2], 0.0632 µM	129	–	–
P12-Ichikawa [2], 0.19 µM	126	–	–
P12-Ichikawa [2], 0.569 µM	131	–	–
P12-Ichikawa [2], 1.71 µM	129	–	–
P12-Ichikawa [2], 5.12 µM	127	–	–
P12-Ichikawa [2], 15.4 µM	126	–	–
P12-Ichikawa [2], 46.1 µM	113	–	–
SEM cells [3], 0.000781 µM	–	115	123
SEM cells [3], 0.00234 µM	–	131	122
SEM cells [3], 0.00702 µM	–	110	123
SEM cells [3], 0.0211 µM	–	127	122
SEM cells [3], 0.0632 µM	–	109	108
SEM cells [3], 0.19 µM	–	145	133
SEM cells [3], 0.569 µM	–	122	149
SEM cells [3], 1.71 µM	–	121	144
SEM cells [3], 5.12 µM	–	126	113
SEM cells [3], 15.4 µM	–	102	89.9
SEM cells [3], 46.1 µM	–	123	93.4

AUC of viability dose-response curve
Conditions	NOMO1 [4]	P12-Ichikawa [5]	SEM cells [6]
HPLM + 10% dialyzed FBS	470	473	468
RPMI 5 mM glucose + 10% FBS	465	462	473
RPMI 5 mM glucose + 10% dialyzed FBS	472	462	440

OC1=CC2=C(C(=C1)O)C(=O)\C(=C(/O2)C3=CC(=C(O)C(=C3)O)O)O
AUC of viability dose-response curve
Conditions	NOMO1 [4]	P12-Ichikawa [5]	SEM cells [6]
HPLM + 10% dialyzed FBS	451	454	462
RPMI 5 mM glucose + 10% FBS	470	471	460
RPMI 5 mM glucose + 10% dialyzed FBS	458	466	470

COc1cc(C)c(/C=C/C(C)=C/C=C/C(C)=C/C(=O)O)c(C)c1C
AUC of viability dose-response curve
Conditions	NOMO1 [4]	P12-Ichikawa [5]	SEM cells [6]
HPLM + 10% dialyzed FBS	442	458	450
RPMI 5 mM glucose + 10% FBS	441	441	426
RPMI 5 mM glucose + 10% dialyzed FBS	420	455	450

CN1CCc2c(n(Cc3ccc(C(=O)NO)cc3)c3ccccc23)C1
AUC of viability dose-response curve
Conditions	NOMO1 [4]	P12-Ichikawa [5]	SEM cells [6]
HPLM + 10% dialyzed FBS	452	448	443
RPMI 5 mM glucose + 10% FBS	440	453	442
RPMI 5 mM glucose + 10% dialyzed FBS	449	451	452
